Earlier results, collected in patent US11564907B2, “Methods and compositions for the treatment of retinopathy and other ocular diseases” (Lankenau Institute for Medical Research, priority 2014, dated 2023).

System: allogeneic mouse concepti
Conditions: pregnant mice; Munn et al. (1998), Mellor et al. (2001)

Cn1cc(C[C@H](N)C(=O)O)c2ccccc21 [1-methyl-tryptophan]
rejection of allogeneic mouse concepti: could elicit T cell-dependent rejection of allogeneic mouse concepti
